According to patent US20250332266A1, “COMPOUNDS FOR THE DEGRADATION OF EGFR KINASE” (BeiGene Switzerland GmbH, priority 2022, published 2025):
Values belong to the compound of their own block, whether it stands above or below them.

Legend:
[1] = molecular target: EGFR Del19/T790M/C797S (H1975-clone #28) (Homo sapiens, UniProt P00533, T790M/C797S, form not given); assay: EGFR degradation, HTRF total-EGFR assay, H1975-clone #28 (DTC); format: cell-based; settings: H1975-clone #28 Del19/T790M/C797S, 16 h treatment
Text: (§1) H1975-clone #28 (Del19/T790M/C797S, or abbr: DTC), H1975-clone #23 (Del19/C797S, or abbr: DC), H1975-clone #25 (L858R/T790M/C797S, or abbr: LTC) and H1975-clone #8 (L858R/C797S, or abbr: LC). EGFR-Del19/T790M/C797S, EGFR-Del19/C797S, EGFR-L858R/T790M/C797S and EGFR-L858R/C797S were stably expressed in H1975 cell lines by lentivirus-mediated over-expression, respectively. The EGFR over-expressed cells then underwent knockout, in which the EGFR targeting sgRNA was designed to only target the endogenous EGFR copies and preserve the exogenous EGFR copies. Followed by the knockout, the edited H1975 cells were seeded in 96 well plates at the concentration of 1 cell/well, cultured for about 2 weeks to allow single clones formation. The formed clones were screened by DNA sequencing and whole exon sequencing analysis for the desired edition. H1975-clone #28, H1975-clone #23, H1975-clone #25 and H1975-clone #8 were finally confirmed as homozygous Del19/T790M/C797S EGFR, Del19/C797S EGFR, L858R/T790M/C797S EGFR and L858R/C797S EGFR clones, respectively.
(§2) H1975-#25, H1975-#28, H1975-#23 and H1975-#8 cells are treated with compounds diluted in 0.2% DMSO cell culture medium on day 2, incubate for 16 h, 37° C., 5% CO2. The final concentration of compounds in all assay is start with 10 μM, 5-fold dilution, total 8 doses were included.
(§3) Total-EGFR cellular kit(64NG1PEH) were used for evaluating EGFR degradation.
(§4) After 16 h treatment, add HTRF lysis buffer to each well; seal the plate and incubate 1 hour at room temperature on a plate shaker; Once the cells are lysed, 16 μL of cell lysate are transferred to a PE 384-well HTRF detection plate; 4 μL of pre-mixed HTRF antibodies are added to each well; cover the plate with a plate sealer, spin 1000 rpm for 1 min, incubate overnight at room temperature; read on BMG PheraStar with HTRF protocol (337 nm-665 nm-620 nm).
(§5) The inhibition (degradation) percentage of the compound was calculated by the following equation:
(§6) Inhibition percentage of Compound=100−100×(Signal−low control)/(High control−low control), wherein signal=each test compound group
(§7) High control=Cell group with added DMSO and without compound, indicating microplate readings without EGFR degradation.
(§8) Imax (Dmax) is the maximum percentage of inhibition (degradation).
(§9) The IC50 (DC50) value of a compound can be obtained by fitting the following equation
(§10) Wherein, X and Y are known values, and IC50, Hillslope, Top and Bottom are the parameters obtained by fitting with software. Y is the inhibition percentage (calculated from the equation), X is the concentration of the compound; IC50 is the concentration of the compound when the 50% inhibition is reached. The smaller the IC50 value is, the stronger the inhibitory ability of the compound is. Vice versa, the higher the IC50 value is, the weaker the ability the inhibitory ability of the compound is; Hillslope represents the slope of the fitted curve, generally around 1*; Bottom represents the minimum value of the curve obtained by data fitting, which is generally 0%±20%; Top represents the maximum value of the curve obtained by data fitting, which is generally 100%±20%. The experimental data were fitted by calculating and analyzing with Dotmatics data analysis software.

[2] = molecular target: T1, EGFR L858R/T790M/C797S (H1975-clone #25) (Homo sapiens, UniProt P00533, C797S/L858R/T790M); assay: EGFR degradation, HTRF total-EGFR assay, H1975-clone #25 (LTC); format: cell-based; settings: H1975-clone #25 L858R/T790M/C797S, 16 h treatment
T1 construct: expressed in transfected cells; host or cells: H1975 (clone #25), lentiviral transduction, endogenous EGFR knocked out
Text: as §1, §2, §3, §4, §5, §6, §7, §8, §9, §10

T1 sequence (P00533 25-1210 T790M/C797S/L858R): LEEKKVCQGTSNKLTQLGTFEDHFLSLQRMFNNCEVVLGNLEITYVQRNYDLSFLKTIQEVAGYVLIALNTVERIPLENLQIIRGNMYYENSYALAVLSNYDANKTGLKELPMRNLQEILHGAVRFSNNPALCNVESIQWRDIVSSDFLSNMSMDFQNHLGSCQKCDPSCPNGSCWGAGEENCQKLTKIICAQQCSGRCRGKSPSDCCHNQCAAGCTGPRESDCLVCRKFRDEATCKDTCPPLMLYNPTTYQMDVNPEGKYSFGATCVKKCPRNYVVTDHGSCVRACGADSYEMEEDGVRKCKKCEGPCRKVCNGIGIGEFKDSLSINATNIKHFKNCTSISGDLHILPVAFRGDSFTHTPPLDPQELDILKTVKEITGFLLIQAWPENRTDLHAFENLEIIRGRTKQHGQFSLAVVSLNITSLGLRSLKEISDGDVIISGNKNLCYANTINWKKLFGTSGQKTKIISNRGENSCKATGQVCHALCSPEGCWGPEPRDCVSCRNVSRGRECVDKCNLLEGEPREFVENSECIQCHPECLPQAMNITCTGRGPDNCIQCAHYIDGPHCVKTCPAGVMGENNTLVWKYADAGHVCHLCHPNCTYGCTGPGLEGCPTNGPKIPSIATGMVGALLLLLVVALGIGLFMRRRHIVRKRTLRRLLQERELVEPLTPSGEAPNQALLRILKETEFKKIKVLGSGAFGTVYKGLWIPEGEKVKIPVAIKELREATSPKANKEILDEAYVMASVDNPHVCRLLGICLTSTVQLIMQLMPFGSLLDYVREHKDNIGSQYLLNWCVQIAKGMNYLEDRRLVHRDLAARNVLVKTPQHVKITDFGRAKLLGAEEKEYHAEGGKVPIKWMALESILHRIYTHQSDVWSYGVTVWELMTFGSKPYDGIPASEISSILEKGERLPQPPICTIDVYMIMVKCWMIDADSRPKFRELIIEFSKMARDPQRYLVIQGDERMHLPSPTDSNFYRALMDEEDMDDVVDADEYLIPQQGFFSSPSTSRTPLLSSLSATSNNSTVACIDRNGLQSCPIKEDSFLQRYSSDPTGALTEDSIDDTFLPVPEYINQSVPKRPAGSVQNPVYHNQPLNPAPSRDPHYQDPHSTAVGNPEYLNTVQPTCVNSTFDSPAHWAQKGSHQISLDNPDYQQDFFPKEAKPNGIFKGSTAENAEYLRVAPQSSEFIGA
Sequence of EGFR Del19/T790M/C797S (H1975-clone #28) (P00533 with tags, fused parts or gaps DEL746-750/T790M/C797S, form open): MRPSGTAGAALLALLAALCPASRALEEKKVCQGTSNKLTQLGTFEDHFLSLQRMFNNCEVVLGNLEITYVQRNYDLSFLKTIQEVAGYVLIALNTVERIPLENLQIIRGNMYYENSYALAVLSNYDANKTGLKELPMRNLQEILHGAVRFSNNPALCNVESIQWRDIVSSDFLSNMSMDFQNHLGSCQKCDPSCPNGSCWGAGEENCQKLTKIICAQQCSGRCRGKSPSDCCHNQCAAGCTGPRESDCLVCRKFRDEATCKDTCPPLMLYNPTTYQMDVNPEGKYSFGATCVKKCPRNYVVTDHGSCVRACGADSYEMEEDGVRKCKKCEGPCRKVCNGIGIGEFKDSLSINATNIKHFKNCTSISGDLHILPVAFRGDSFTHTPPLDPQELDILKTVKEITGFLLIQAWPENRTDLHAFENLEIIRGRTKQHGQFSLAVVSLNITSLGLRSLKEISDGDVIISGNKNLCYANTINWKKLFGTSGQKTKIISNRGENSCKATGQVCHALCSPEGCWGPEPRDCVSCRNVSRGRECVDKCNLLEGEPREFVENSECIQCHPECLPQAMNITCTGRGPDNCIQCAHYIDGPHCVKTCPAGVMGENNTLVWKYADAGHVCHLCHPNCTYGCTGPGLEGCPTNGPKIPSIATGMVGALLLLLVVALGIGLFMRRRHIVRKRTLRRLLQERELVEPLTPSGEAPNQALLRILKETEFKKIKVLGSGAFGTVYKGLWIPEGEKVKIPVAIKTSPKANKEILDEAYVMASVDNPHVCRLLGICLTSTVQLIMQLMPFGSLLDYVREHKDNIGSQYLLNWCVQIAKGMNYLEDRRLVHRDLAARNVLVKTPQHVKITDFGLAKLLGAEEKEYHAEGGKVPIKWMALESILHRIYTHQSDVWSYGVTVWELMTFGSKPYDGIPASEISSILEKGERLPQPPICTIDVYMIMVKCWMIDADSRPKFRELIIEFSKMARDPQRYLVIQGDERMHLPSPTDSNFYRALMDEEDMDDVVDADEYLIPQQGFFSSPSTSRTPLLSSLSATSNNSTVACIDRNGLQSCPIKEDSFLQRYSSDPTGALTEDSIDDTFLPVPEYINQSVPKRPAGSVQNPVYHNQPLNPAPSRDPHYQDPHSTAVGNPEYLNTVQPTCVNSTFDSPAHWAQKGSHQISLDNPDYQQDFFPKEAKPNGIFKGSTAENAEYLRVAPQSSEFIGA

Structure (SMILES): Cc1cc2cc(n1)-c1cnn(C)c1OC[C@H]1C[C@@H](CN3/C(=N/C2=O)Nc2ccc(CN4CCN(C(=O)C5CN(c6cc(F)c([C@H]7CCC(=O)NC7=O)c(F)c6)CC5(C)C)CC4)cc23)C1 (stereo partly drawn) [Example 4, (R)-3-(4-((S)-4-(4-(((7^1s,7^3R,E)-1^1,2^6-dimethyl-3-oxo-5^2,5^3-dihydro-1^1H,5^1H-9-oxa-4-aza-5(2,1)-benzo[d]imidazola-2(2,4)-pyridina-1(4,5)-pyrazola-7(1,3)-cyclobutanacyclononaphane-5^6-yl)methyl)piperazine-1-carbonyl)-3,3-dimethylpyrrolidin-1-yl)-2,6-difluorophenyl)piperidine-2,6-dione]
Degradation H1975 # 28 DTC [1]: 84.6
Degradation H1975 # 25-LTC [2]: 86.6

Structure (SMILES): Cc1cc2cc(n1)-c1cnn(C)c1OC[C@H]1C[C@@H](CN3/C(=N/C2=O)Nc2ccc(N4CCC(N5CCN(c6cnc(C7CCC(=O)NC7=O)cc6C)CC5)CC4)cc23)C1 (stereo partly shown) [Example 5, 3-(5-(4-(1-((7^1s,7^3s,E)-1^1,2^6-dimethyl-3-oxo-5^2,5^3-dihydro-1^1H,5^1H-9-oxa-4-aza-5(2,1)-benzo[d]imidazola-2(2,4)-pyridina-1(4,5)-pyrazola-7(1,3)-cyclobutanacyclononaphane-5^6-yl)piperidin-4-yl)piperazin-1-yl)-4-methylpyridin-2-yl)piperidine-2,6-dione]
Degradation H1975 # 28 DTC [1]: 92.2
Degradation H1975 # 25-LTC [2]: 92.9

Structure (SMILES): Cc1cc2cc(n1)-c1cnn(C)c1OC[C@H]1C[C@@H](CN3/C(=N/C2=O)Nc2ccc(N4CCN(C5CCN(c6ccc(C7CCC(=O)NC7=O)nc6)CC5)C[C@H]4C)cc23)C1 (stereo partly drawn) [Example 7, 3-(5-(4-((R)-4-((7^1s,7^3S,E)-1^1,2^6-dimethyl-3-oxo-5^2,5^3-dihydro-1^1H,5^1H-9-oxa-4-aza-5(2,1)-benzo[d]imidazola-2(2,4)-pyridina-1(4,5)-pyrazola-7(1,3)-cyclobutanacyclononaphane-5^6-yl)-3-methylpiperazin-1-yl)piperidin-1-yl)pyridin-2-yl)piperidine-2,6-dione]
Degradation H1975 # 28 DTC [1]: 80.6
Degradation H1975 # 25-LTC [2]: 78.6

Structure (SMILES): Cc1cc2cc(n1)-c1cnn(C)c1OC[C@H]1C[C@@H](CN3/C(=N/C2=O)Nc2ccc(N4CCN(CCc5cc(F)c([C@H]6CCC(=O)NC6=O)c(F)c5)CC4=O)cc23)C1 [Example 9, (R)-3-(4-(2-(4-((7^1s,7^3s,E)-1^1,2^6-dimethyl-3-oxo-5^2,5^3-dihydro-1^1H,5^1H-9-oxa-4-aza-5(2,1)-benzo[d]imidazola-2(2,4)-pyridina-1(4,5)-pyrazola-7(1,3)-cyclobutanacyclononaphane-5^6-yl)-3-oxopiperazin-1-yl)ethyl)-2,6-difluorophenyl)piperidine-2,6-dione]
Degradation H1975 # 28 DTC [1]: 90.9
Degradation H1975 # 25-LTC [2]: 88.5

Structure (SMILES): Cc1cc2cc(n1)-c1cnn(C)c1OC[C@H]1C[C@@H](CN3/C(=N/C2=O)Nc2ccc(N4CCN(C5CCN(c6cc(F)c([C@H]7CCC(=O)NC7=O)c(F)c6)CC5)CC4=O)cc23)C1 [Example 10, (R)-3-(4-(4-(4-((7^1s,7^3s,E)-1^1,2^6-dimethyl-3-oxo-5^2,5^3-dihydro-1^1H,5^1H-9-oxa-4-aza-5(2,1)-benzo[d]imidazola-2(2,4)-pyridina-1(4,5)-pyrazola-7(1,3)-cyclobutanacyclononaphane-5^6-yl)-3-oxopiperazin-1-yl)piperidin-1-yl)-2,6-difluorophenyl)piperidine-2,6-dione]
Degradation H1975 # 28 DTC [1]: 90.6
Degradation H1975 # 25-LTC [2]: 89.8

Structure (SMILES): Cc1cc2cc(n1)-c1cnn(C)c1OC[C@H]1C[C@@H](CN3/C(=N/C2=O)Nc2ccc(N4CCN(CC5CN(c6cc(F)c([C@H]7CCC(=O)NC7=O)c(F)c6)C5)CC4=O)cc23)C1 [Example 11, (R)-3-(4-(3-((4-((7^1s,7^3s,E)-1^1,2^6-dimethyl-3-oxo-5^2,5^3-dihydro-1^1H,5^1H-9-oxa-4-aza-5(2,1)-benzo[d]imidazola-2(2,4)-pyridina-1(4,5)-pyrazola-7(1,3)-cyclobutanacyclononaphane-5^6-yl)-3-oxopiperazin-1-yl)methyl)azetidin-1-yl)-2,6-difluorophenyl)piperidine-2,6-dione]
Degradation H1975 # 28 DTC [1]: 91.5
Degradation H1975 # 25-LTC [2]: 85.4

Structure (SMILES): Cc1cc2cc(n1)-c1cnn(C)c1OC[C@H]1C[C@@H](CN3/C(=N/C2=O)Nc2ccc(N4CCN(C5CCN(c6ccc(C7CCC(=O)NC7=O)nc6)CC5)CC4=O)cc23)C1 (stereo partly shown) [Example 12, 3-(5-(4-(4-((7^1s,7^3s,E)-1^1,2^6-dimethyl-3-oxo-5^2,5^3-dihydro-1^1H,5^1H-9-oxa-4-aza-5(2,1)-benzo[d]imidazola-2(2,4)-pyridina-1(4,5)-pyrazola-7(1,3)-cyclobutanacyclononaphane-5^6-yl)-3-oxopiperazin-1-yl)piperidin-1-yl)pyridin-2-yl)piperidine-2,6-dione]
Degradation H1975 # 28 DTC [1]: 85.3
Degradation H1975 # 25-LTC [2]: 79.0

The remaining lines, values ahead:

Degradation H1975 # 28 DTC [1]: 76.0
Degradation H1975 # 25-LTC [2]: 87.3
Structure (SMILES): Cc1cc2cc(n1)-c1cnn(C)c1OC[C@H]1C[C@@H](CN3/C(=N/C2=O)Nc2ccc(N4CCN(C5CCN(c6ccc(C7CCC(=O)NC7=O)nc6)CC5)CC4)cc23)C1 (stereo partly shown) [Example 15, 3-(5-(4-(4-((7^1s,7^3s,E)-1^1,2^6-dimethyl-3-oxo-5^2,5^3-dihydro-1^1H,5^1H-9-oxa-4-aza-5(2,1)-benzo[d]imidazola-2(2,4)-pyridina-1(4,5)-pyrazola-7(1,3)-cyclobutanacyclononaphane-5^6-yl)piperazin-1-yl)piperidin-1-yl)pyridin-2-yl)piperidine-2,6-dione]

Degradation H1975 # 28 DTC [1]: 86.2
Degradation H1975 # 25-LTC [2]: 88.3
Structure (SMILES): Cc1cc2cc(n1)-c1cnn(C)c1OC[C@H]1C[C@@H](CN3/C(=N/C2=O)Nc2ccc(N4CCC(N5CCN(c6cc(F)c([C@H]7CCC(=O)NC7=O)c(F)c6)CC5)CC4)cc23)C1 [Example 17, (R)-3-(4-(4-(1-((7^1s,7^3s,E)-1^1,2^6-dimethyl-3-oxo-5^2,5^3-dihydro-1^1H,5^1H-9-oxa-4-aza-5(2,1)-benzo[d]imidazola-2(2,4)-pyridina-1(4,5)-pyrazola-7(1,3)-cyclobutanacyclononaphane-5^6-yl)piperidin-4-yl)piperazin-1-yl)-2,6-difluorophenyl)piperidine-2,6-dione]

Degradation H1975 # 28 DTC [1]: 88.4
Degradation H1975 # 25-LTC [2]: 88.6
Structure (SMILES): Cc1cc2cc(n1)-c1cnn(C)c1OC[C@H]1C[C@@H](CN3/C(=N/C2=O)Nc2ccc(N4CCN(C5CCN(c6cc(F)c([C@H]7CCC(=O)NC7=O)c(F)c6)CC5)C[C@H]4C)cc23)C1 [Example 18, (R)-3-(4-(4-((R)-4-((7^1s,7^3S,E)-1^1,2^6-dimethyl-3-oxo-5^2,5^3-dihydro-1^1H,5^1H-9-oxa-4-aza-5(2,1)-benzo[d]imidazola-2(2,4)-pyridina-1(4,5)-pyrazola-7(1,3)-cyclobutanacyclononaphane-5^6-yl)-3-methylpiperazin-1-yl)piperidin-1-yl)-2,6-difluorophenyl)piperidine-2,6-dione]

Degradation H1975 # 28 DTC [1]: 92.8
Degradation H1975 # 25-LTC [2]: 92.2
Structure (SMILES): Cc1cc2cc(n1)-c1cnn(C)c1OC[C@H]1C[C@@H](CN3/C(=N/C2=O)Nc2ccc(N4CCN([C@H]5CCN(c6ccc(C7CCC(=O)NC7=O)nc6C)C[C@H]5F)CC4)cc23)C1 (stereo partly drawn) [Example 19, 3-(5-((3R,4S)-4-(4-((7^1s,7^3R,E)-1^1,2^6-dimethyl-3-oxo-5^2,5^3-dihydro-1^1H,5^1H-9-oxa-4-aza-5(2,1)-benzo[d]imidazola-2(2,4)-pyridina-1(4,5)-pyrazola-7(1,3)-cyclobutanacyclononaphane-5^6-yl)piperazin-1-yl)-3-fluoropiperidin-1-yl)-6-methylpyridin-2-yl)piperidine-2,6-dione]
